{"source": "patent US20220354852A1", "about": "“TARGETING WNT SIGNALING FOR IMPROVED GLIOMA IMMUNOTHERAPY” (CITY OF HOPE, priority 2021, published 2022)", "key": {"[1]": {"experiment": "Orthotopic syngeneic murine hepatocellular carcinoma model (qRT-PCR, IHC)", "format": "in vivo", "conditions": "IHC, minimally 10 fields counted", "description": "(§1) CXCL9 and CXCL10, are produced mainly by BATF3 dendritic cells that are required for Teff trafficking. The CXCL9, CXCL10, CXCL11/CXCR3 signaling axis is critical for activated T-helper type 1 (Th1), cytotoxic T-cell (CTL), and natural killer (NK) cell recruitment immune cell recruitment in vivo. A similar effect resulting from ICG-001 is likely, such as increased CD8^+T-cell infiltration into brain tumors (FIG. 3B)."}, "[2]": {"system": "interferon-y regulated chemokines CXCL9-11 in the TME", "experiment": "Orthotopic syngeneic murine hepatocellular carcinoma model (qRT-PCR, IHC)", "format": "in vivo", "conditions": "qRT-PCR, previously demonstrated", "description": "as §1"}, "[3]": {"system": "human patient-derived glioma (PBT017, PBT030, PBT135, PBT144, and PBT147)", "experiment": "ICG-001 single agent on human patient-derived glioma cell lines (growth kinetics, morphology)", "format": "cell-based", "protocol": "(§2) FIG. 2. Combinational strategy of CAR T cell-mediated tumor-antigen targeting with ICG-001 induced differentiation in glioma. […] (B) Cytotoxicity of HER2 CAR-T cells and tumor cells (1:5 ratio) was enhanced by ICG-001 at concentrations 1.25-5 μM. (C) Treatment of PBT138 patient glioma tumors with CAR T IL13Rα2+/−ICG-001.\n(§3) FIG. 11. (A, B) Growth kinetics of human PBT glioma lines (PBT017, PBT030, PBT135, PBT144, and PBT147) treated with ICG-001 (0-10 μM) for 7 days and (C) mouse glioma cells (GL261, GL261-IL13, and K-luc) treated with ICG-001 (0-10 μM) for 4 days. Red boxes indicate PBT030 and PBT147 cell lines used for Nanostring and proteomics analysis. Scale bars represent S.D. of triplicate samples. (D-F) Growth kinetics of PBT017 (2,500 cells/well) treated with or without HER2-CAR T cells (500 cells/well) and with or without ICG-001 (0-5 μM). The red line is CAR T cell treatment only and the bottom three lines are with ICG-001. Experiment was done in quadruplicate and error bars indicate S.D.\nPBT tumor cells lines are patient derived tumors dissociated and grown in DMEM/F12 medium, supplemented with heparin, hepes, glutamax and B27. EFG and FGF is added at the time of the culture as described previously (Brown et al. 2009). ICG-001 was kindly provided by another laboratory.\nIn vitro experiments. Co-culture assay of PBT cell lines grown as described above and seeded to 100,000 cells/2 ml in 6 well plates. ICG-001 is added to the cell culture in concentrations […] for 24-72 h, as described previously (Brown et al. 2013).\nICG-001 activity in vitro in human and mouse glioma cell lines. Initially, the effects of the specific CBP/β-catenin antagonist ICG-001 was tested in vitro as a single agent on human and mouse glioma cell lines (5 PBT human and 3 mouse glioma lines)."}, "[4]": {"system": "PBT017 and PBT106 derived lines that express high levels of the tumor antigen HER2", "experiment": "In vitro co-culture cytotoxicity assay, HER2-CAR T cells ± ICG-001", "format": "cell-based, human", "protocol": "as §2, §3\nFIG. 13 illustrates data resulting from the combination of ICG001 and CAR T cells toxicity in vitro using 2000 cells to start and 4 days (96-well Endpoint—cell count) according to certain embodiments.\nFIG. 14 illustrates data resulting from the Combination of ICG001 and CAR T cells toxicity in vitro using 1000 cells to start and 4 days (96-well Endpoint—cell count) according to certain embodiments.\nIt has also been observed that ICG-001-induced differentiation of PBT017 and PBT138 (data not shown).\nNext, the efficacy of a titrated dose of CAR T cells±ICG-001 to induce tumor cell killing in vitro was tested (FIG. 11D-F). The combination of HER2-engineered CAR T (HER2-CAR T) cells and IGC-001 was evaluated using in vitro co-culture assays."}, "[5]": {"system": "T cells derived from 3 donors", "experiment": "NanoString gene expression analysis of T cells treated with ICG-001", "format": "cell-based", "conditions": "ICG-001 2.5 or 5 μM", "protocol": "FIG. 27. T cells treated with ICG001 2.5 and 5 μM for 24 or 72 h. (A) CAR Ts mock and HER2 from one donor and mock CARs derived from two additional donors were plated on 6-well format plates and treated with ICG001 at concentrations 0-5 μM for 24 or 72 h. Cells were collected from each well, counted, and viability was determined. (B, C) NanoString analysis of T cells treated with ICG-001 to determine concentration-dependent metabolic changes. […] (E) Correlation of differential gene expression in all T cell lines combined at concentration of 2.5 and 5 μM.\nAntagonism of WNT/CBP/β-catenin signaling effects CAR T cells. Wnt signaling plays critical roles in T cell development and commitment (Li et al. 2019). Thus, the combined data derived from all T cell lines used and compared with untreated controls was analyzed for each T cell line.\nHowever, at a higher concentration of ICG-001, a higher degree of differential gene expression was observed. […]"}}, "note": "“Also recorded” adds a separate entry of the source."}
{"smiles": "O=C1[C@H](Cc2ccc(O)cc2)N2C(=O)CCN(C(=O)NCc3ccccc3)[C@H]2CN1Cc1cccc2ccccc12", "note": "[ICG-001]", "values": [{"measurement": "CD8+ T cell infiltration into the tumor microenvironment", "setting": "[1]", "value": "increased CD8+ T cell infiltration"}, {"measurement": "expression of interferon-y regulated chemokines CXCL9-11 in the TME", "setting": "[2]", "value": "significantly increased; also recorded: increased the expression"}, {"measurement": "effect on cell growth (growth kinetics)", "setting": "[3]; ICG-001 0-10 μM, 7 days, PBT017, PBT030, PBT135, PBT144, PBT147", "value": "concentration dependent cytostatic effect"}, {"measurement": "differentiation and growth of PBT017 glioma cells", "setting": "[3]; ICG-001 0.75-10 μM, PBT017", "value": "differentiation and cell growth arrest"}, {"measurement": "morphological phenotype", "setting": "[3]; all glioma lines, demonstrated with PBT017.RFP", "value": "less proliferative and more differentiated phenotype"}, {"measurement": "cytotoxicity of HER2 CAR-T cells", "setting": "[4]; CAR-T cells and tumor cells 1:5 ratio, ICG-001 1.25-5 μM", "value": "enhanced"}, {"measurement": "tumor cell killing at given effector: target cell ratios", "setting": "[4]; HER2-CAR T cells + ICG-001, effector: target cell ratios of 1:5 and 1:10", "value": "Enhanced killing"}, {"measurement": "tumor cell killing, ICG-001 in combination with HER2-CAR T cells", "setting": "[4]; PBT017 (and PBT106) lines, ICG-001 0-5 μM", "value": "synergistic cytotoxicity; also recorded: synergistic killing"}, {"measurement": "killing by CAR T cells of ICG-001-treated tumor cells", "setting": "[4]; Tumor[PBT106.eGFP]: CAR T [Her2] cells in ratios (1:2; 1:2, 1:4)", "value": "improved killing by CAR T cells"}, {"measurement": "T cell differentiation", "setting": "[5]", "value": "directed T cell differentiation into multiple types of effector and memory T cells"}, {"measurement": "expression of DPP4, CD48, CEBPB, B2M, ICOSLG, CD81, CXCR4, XBP1, NFIL3, and others in T cells", "setting": "[5]; 24 or 72 h", "value": "upregulation of key genes"}]}
